In brackets after ≈: the same amount, converted by molar mass. Where two headings read alike, the source gives them in different places.
Tests used:
[1] = system: Fluoroquinolone-Resistant Strains; test: In-vitro antimicrobial test (MIC, two-fold serial agar dilution, NCCLS), Table 18; type: cell-based
Procedure: (§1) The test method was in accordance with the standard NCCLS protocol (Methods for Dilution Antimicrobial Susceptibility Tests for Bacteria that grow Aerobicially, Approved Standards, M7-A5, Fifth Edition, January 2000).
(§2) The antibacterial activities (minimum inhibitory concentration: MIC, […]) were determined by using the two-fold serial agar dilution method recommended by NCCLS. The media used for preculture and main culture were Tryptic Soya broth (Difco) and Mueller Hinton medium (Difco), respectively. The Mueller Hinton agar was supplemented with 5% sheep blood for streptococci. Overnight cultures were diluted with buffered saline (pH 7.2) to the final cell density of 5×10^6-10^7 CFU/ml, and each bacterial suspension was applied with a replicator (Denley's multipoint inoculator, UK) onto a series of Mueller-Hinton agar plates containing antibacterial agents at various concentrations. Final inoculum was approximately 10^4 CFU/spot. The plates were incubated for 18 hrs at 37° C. The MIC was defined as the lowest concentration of an antibacterial agent that inhibits the development of visible microbial growth on agar.

[2] = system: MRSA 5027; test: Resistance to resistance development (sequential passages through drug-containing media); type: cell-based; conditions: Staphylococcus aureus
[3] = system: Multidrug-Resistant (MDR) Pneumococcal Infections; test: In-vivo antimicrobial test, systemic infection model (mouse septicemia), Table 22; design: species or system Swiss male and female mice; conditions: Streptococcus pneumoniae, po, oral dosing 1 hour and 5 hours post-infection, survival on day 7, strain resistant to β-lactams, macrolides and fluoroquinolones, read-out: ED50 p.o., MDR S. pneumoniae 718
Procedure: The in vivo efficacy was studied through mouse septicemia model of infection in Swiss male and female mice (4 weeks old, 20+2 g weight) using 6 animals in each group. Infective organisms were inoculated intraperitonially. Compound were administered by oral route 1 hour and 5 hours post-infection. […] Appropriate comparators were included in the study.

[4] = system: J 744 (mouse macrophage); test: Cytotoxicity test (Alamar blue), J 744 cells, Table 23; type: cell-based; conditions: 3 hrs drug exposure, further 96 hrs incubation
Procedure: Compounds were evaluated for their cytotoxic potential against two celllines viz. […] Cytotoxic drugs inhibit this reaction resulting into blue coloured well. Minimum drug concentration inhibiting Alamar blue color change i.e. resulting into blue coloured wells for a given drug is considered cytotoxic concentration.

[5] = system: V79 (Chinese Hamster Lung); test: Cytotoxicity test (Alamar blue), V79 cells, Table 23; type: cell-based; conditions: 3 hrs drug exposure, further 96 hrs incubation
Procedure: Compounds were evaluated for their cytotoxic potential against two […] viz. […] Cells were grown for 3-4days in a culture flask using D-MEM (Dulbecco's Modified Eagle. […] Freshly grown cells were distributed in microtiter plates at a cell density of 10^5-10^6 cells/well and allowed to […] form monolayer by incubating the microtiter plate at […] for 24 hrs. […] Following 3 hrs. of drug exposure, cell were washed with D-MEM and incubated further for 96 hrs. Cytotoxic effects of drugs were monitored through daily microscopic observation and by ascertaining the metabolic status through redox indicator Alamar blue. Healthy actively metabolising cells bring about colour change of Alamar blue from blue to pink within an overnight incubation. Cytotoxic drugs inhibit this reaction resulting into blue coloured well. Minimum drug concentration inhibiting Alamar blue color change i.e. resulting into blue coloured wells for a given drug is considered cytotoxic concentration.

[6] = system: Fluoroquinolone Sensitive Strains; test: In-vitro antimicrobial test (MIC, two-fold serial agar dilution, NCCLS), Table 17; type: cell-based
[7] = system: Trovafloxacin-Resistant and Vancomycin-Resistant Enterococci; test: In-vitro antimicrobial test (MIC, two-fold serial agar dilution, NCCLS), Table 19; type: cell-based
From the text: The comparative antimicrobial activity of representative compounds, of the invention and reference compounds against various sensitive and resistant microorganisms is given in Tables 17 to 20. The test method was in accordance with the standard NCCLS protocol (Methods for Dilution Antimicrobial Susceptibility Tests for Bacteria that grow Aerobicially, Approved Standards, M7-A5, Fifth Edition, January 2000).
as §2

[8] = system: Clinical Isolate MRSA 5076 with Mutations in DNA Gyrase and Topoisomerase IV as well as bearing an Efflux Pump; test: microbe, parasite or virus in culture; type: cell-based; conditions: for MIC: Staphylococcus aureus, ATCC 25293 / MRSA, read-out: MICs, S. aureus (sensitive) ATCC 25293
Procedure: as §1, §2

[9] = Phototoxicity (oral dose, UVA exposure, ear erythema and oedema); type: in vivo; conditions: Swiss Albino mice, UVA 4 hours for 4 consecutive days
Procedure: The stock solutions for different doses were prepared freshly on the day of experimentation. Appropriate concentration of each dose was chosen to give a constant dosage volume of 0.3-0.4 ml/20 g body weight of mouse. The treated mice were exposed to UVA light source immediately after dosing for 4 hours and for 4 consecutive days. The mean light intensity in the UVA chamber was adjusted to 0.9-1.2 mW/cm^2. […] A phototoxic dose is one which causes ear erythema and oeadema.

[10] = Staphylococcus aureus, MRSA, MRSA 032
[11] = Streptococcus pneumoniae, FQ^R S. pneumoniae 718
[12] = read-out: MIC against MRSA 5027, initially
[13] = read-out: MIC against MRSA 5027 after 10 passages in drug containing medium
[14] = Enterococcus faecalis, ATCC29212, E. faecalis ATCC 29212
[15] = Escherichia coli, ATCC25922, E. coli ATCC 25922
[16] = S. sanguis ATCC 10556 (Viridans Streptococci group)
[17] = Staphylococcus aureus, ATCC 25923 / MSSA, MSSA ATCC 25923
[18] = Streptococcus pneumoniae, ATCC49619, S. pneumoniae ATCC 49619

| Compound | MIC [1, 10] [µg/mL] | MIC [1, 11] [µg/mL] | MIC [2, 12] [µg/mL] | MIC [2, 13] [µg/mL] | ED50 [3] [mg/kg] | Cytotoxic concentration, J 744 Macrophage [4] [µg/mL] | Cytotoxic concentration, V 79 CHL [5] [µg/mL] | MIC [6, 14] [µg/mL] | MIC [6, 15] [µg/mL] | MIC [6, 16] [µg/mL] | MIC [6, 17] [µg/mL] | MIC [6, 18] [µg/mL] | MIC [8] [µg/mL] | also measured |
| --- | --- | --- | --- | --- | --- | --- | --- | --- | --- | --- | --- | --- | --- | --- |
| COc1c(N2CCC(N)C(C)(C)C2)c(F)cc2c(=O)c(C(=O)O)cn(C3CC3)c12.Cl (racemic) [Compound 18, (±)-1-Cyclopropyl-6-fluoro-1,4-dihydro-8-methoxy-7-(4-amino-3,3-dimethyl-1-piperidinyl)-4-oxo-quinoline-3-carboxylic acid hydrochloride] | 0.8 | 0.8 | 0.4 | 0.4 | 30 | >1000 | >1000 | – | – | – | – | – | – | – |
| Cc1c(N2CCC(O)C(C)(C)C2)c(F)cc2c(=O)c(C(=O)O)cn(C3CC3)c12 (racemic) [Compound 95, (±)-1-Cyclopropyl-6-fluoro-8-methyl-7-(4-hydroxy-3,3-dimethyl-1-piperidinyl)-1,4-dihydro-4-oxo-quinoline-3-carboxylic acid] | 0.2 (≈ 0.515 µM) | 0.8 (≈ 2.06 µM) | – | – | – | >1000 | >1000 | 0.05 (≈ 0.129 µM) | 0.2 (≈ 0.515 µM) | 0.025 (≈ 0.0644 µM) | 0.003 (≈ 0.00772 µM) | 0.025 (≈ 0.0644 µM) | 0.003 (≈ 0.00772 µM) | MIC ([6]; Pseudomonas aeruginosa, P. aeruginosa 27853): 3.12 µg/mL (≈ 8.03 µM); MIC ([1]; Cipro^R S. sanguis 941): 0.4 µg/mL (≈ 1.03 µM); MIC ([1]; Streptococcus mitis, Cipro^R S. mitis 938): 0.4 µg/mL (≈ 1.03 µM); MIC ([7]; Staphylococcus epidermidis, trovafloxacin-resistant methicillin-resistant S. epidermidis (MRSE) 110, 18 hrs at 37° C, read-out: MICs, Trova-Resist MRSE 110): 0.4 µg/mL (≈ 1.03 µM); MIC ([7]; vancomycin-resistant Enterococcus faecium (VRE) 336, 18 hrs at 37° C, read-out: MICs, VRE 336): 3.12 µg/mL (≈ 8.03 µM); MICs, MRSA 5076 + efflux inhibitor reserpine ([8]; MRSA 5076 with efflux inhibitor reserpine): 0.2 µg/mL |
| Cc1c(N2CCC(N)C(C)(C)C2)c(F)cc2c(=O)c(C(=O)O)cn(C3CC3)c12.Cl (single isomer, unassigned; (-)) [Compound 110, (−)-1-Cyclopropyl-6-fluoro-1,4-dihydro-8-methyl-7-(4-amino-3,3-dimethyl-1-piperidinyl)-4-oxo-quinoline-3-carboxylic acid hydrochloride] | – | – | – | – | 20 | – | – | – | – | – | – | – | 0.05 | MICs ([6]; E. coli ATCC 25922, hydrochloride): 0.025 µg/mL; MICs ([6]; E. faecalis ATCC 29212, hydrochloride): 0.05 µg/mL; MICs ([6]; MSSA ATCC 25923): 0.025 µg/mL; MICs ([6]; S. pneumoniae ATCC 49619, hydrochloride): 0.025 µg/mL; MICs ([1]; Cipro^R S. sanguis 941, hydrochloride): 1.56 µg/mL; Cytotoxic concentration, J 744 Macrophage ([4]; hydrochloride): 1000 µg/mL; Cytotoxic concentration, V 79 CHL ([5]; hydrochloride): 250 µg/mL; melting point: 300 °C |
| COc1c(N2C[C@@H]3CCCN[C@@H]3C2)c(F)cc2c(=O)c(C(=O)O)cn(C3CC3)c12 [Moxifloxacin, reference compound] | – | – | 0.4 (≈ 0.996 µM) | – | > 100 | – | – | 0.2 (≈ 0.498 µM) | 0.05 (≈ 0.125 µM) | 0.4 (≈ 0.996 µM) | 0.05 (≈ 0.125 µM) | 0.2 (≈ 0.498 µM) | – | – |
| N[C@@H]1[C@H]2CN(c3nc4c(cc3F)c(=O)c(C(=O)O)cn4-c3ccc(F)cc3F)C[C@@H]12 [Trovafloxacin] | – | – | 0.4 (≈ 0.961 µM) | 50 (≈ 120 µM) | – | 500 | – | – | – | – | – | – | – | – |
| C[C@@H]1CN(c2c(F)c(N)c3c(=O)c(C(=O)O)cn(C4CC4)c3c2F)C[C@H](C)N1 [sparfloxacin] | – | – | – | – | – | – | – | – | – | – | – | – | – | phototoxic dose [9]: 25 mg/kg |
